These results are taken from article PMC12305494, “Discovery of PXR Antagonist MI891 and PXR Degrader MI1013 and Their Roles in Hepatic Gene Regulation” (Journal of Medicinal Chemistry, 2025).

“And” between values parts separate entries of the source, which are not always exact repeats. Identical values can stand only once.

For one data set, the target named is T1, PPARγ (Homo sapiens, UniProt P37231).
T1 construct: expressed in transfected cells
Briefly: PPARγ agonist reporter assay. Format: cell-based. The conditions noted are these: 10 µM MI891. How it is done:
For the farnesoid X receptor (FXR) luciferase gene reporter assay, the full-length expression vector was paired with pFXRE-luc luciferase construct. The p1A1-luc construct was used in the aryl hydrocarbon receptor (AhR) assays with pRL-TK for normalization. Gal4-LXR-α/β, and Gal4-PPAR-γ constructs were used with the pGAL4 UAS-luc construct. For the VDR assay, expression vector pSG5-hVDR together with pVDRE-luc constructs was used. Firefly and Renilla luciferase activities were analyzed using a Dual reporter assay (Promega). For the nuclear receptor assays, prototype ligands were used at the following concentrations: Calcitriol for VDR (100 nM), GW3965 for LXRα and LXRβ (10 μM), 6-OCA for FXR (1 μM), fenofibrate for PPARα (10 μM), estradiol for ERα and β (10 μM), rosiglitazone for PPARγ (10 μM), 3-MC for AhR (5 μM), and TCPOBOP for mCAR (10 μM). Detailed descriptions and protocols are detailed in our recent publication. , […]
hydrophobic interactions. (F) Superimposed diagram of PXR bound with agonist (SJPYT-328) and antagonists (MI891 and SJPYT-331) to differentiate the agonist and antagonist interactions with helix 12 (H12). The interaction of the agonist with PXR residue (L428) is circled. (G) Extended nuclear receptor selectivity profile. […]
A general note: Reporter assays use an easily measured gene product as a stand-in for the process of interest.

The target in the next data set is rhesus monkey PXR (oPXR) (Macaca mulatta, UniProt Q8SQ01). Briefly: Rhesus monkey PXR luciferase reporter assay. Format: cell-based. As to conditions: rifampicin as prototypical inducer. Here is the method:
The CYP3A4 gene promoter luciferase reporter construct (p3A4-luc) bears a distal XREM (−7836/–7208) and a proximal promoter sequence (prPXRE, −362/+53) from the CYP3A4 gene promoter region. […] The human PXR expression vector (variant 1, NM_003889.3) as well as vectors for mouse, rat, and monkey orthologues were described in our recent paper (39). […] Rhesus monkey, mouse, and rat PXR expression vectors (100 ng/well each) were also obtained from GenScript. […] Carlberg (University of Kuopio, Kuopio, Finland).
The cells were cultured in DMEM medium (Merck) supplemented with 10% fetal bovine serum.

For another data set, the target named is T2, PXR (Homo sapiens, UniProt O75469).
T2 sequence (O75469 1-434): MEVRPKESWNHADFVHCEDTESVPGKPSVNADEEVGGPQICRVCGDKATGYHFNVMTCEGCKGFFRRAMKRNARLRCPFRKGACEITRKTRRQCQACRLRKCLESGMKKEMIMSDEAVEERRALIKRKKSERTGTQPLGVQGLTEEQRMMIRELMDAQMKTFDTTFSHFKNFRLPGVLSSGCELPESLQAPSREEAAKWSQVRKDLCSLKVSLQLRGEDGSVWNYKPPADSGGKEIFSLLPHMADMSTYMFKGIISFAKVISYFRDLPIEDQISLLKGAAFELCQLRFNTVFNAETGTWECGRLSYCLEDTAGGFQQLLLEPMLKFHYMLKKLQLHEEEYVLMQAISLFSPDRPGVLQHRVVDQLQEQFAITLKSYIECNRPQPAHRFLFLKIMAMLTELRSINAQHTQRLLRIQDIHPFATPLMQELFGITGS
Briefly: cell-based.

Another data set concerns the target T3, PXR-HiBiT (Homo sapiens, UniProt O75469+Q96SW2).
T3 construct: host or cells: HepG2
Nature of the data set: Nano-Glo HiBiT lytic assay in HepG2 cells. Format: cell-based. As to conditions: HepG2, 10 μM, 8 h, 0.3 ng PXR-HiBiT vector. Here is the method:
For HiBiT assay, HepG2 cells (40,000 cells/well) were seeded in a 48-well plate. The following day, cells were transfected with 0.3–100 ng of PXR-HiBiT (GenScript-HiBiT_NR1I2_OHu23779D_pcDNA3.1+/C-(K)-DYK) and 0.3–100 ng of CRBN (GenScript-CRBN_OHu21180D_pcDNA3.1+/C-(K)-DYK) in a 1:1 ratio using Lipofectamine 3000 (ThermoFisher Scientific), following the manufacturer’s protocol. After 24 h, cells were treated with varying concentrations of MI1013, and vehicle (0.1% DMSO). The plates were incubated for 8 h, and the HiBiT NanoLuc signal was measured using the Nano-Glo HiBiT Lytic Detection System (Promega; […]) in a Synergy microplate reader (Biotek) under luminescence mode with a read time of 0.2 s/well, gain set as auto, and integration time 2 s. Results are reported as relative abundance or response (%) change relative to DMSO control cells. […] The DC50 value was calculated using a curve fit–log(inhibitor) vs response–with a variable slope (four-parameter) logistic fitting using GraphPad Prism.
In general terms: With HiBiT, luminescence reflects the tagged protein that the partner subunit can reach.

Chain of rhesus monkey PXR (oPXR) (Q8SQ01 whole entry): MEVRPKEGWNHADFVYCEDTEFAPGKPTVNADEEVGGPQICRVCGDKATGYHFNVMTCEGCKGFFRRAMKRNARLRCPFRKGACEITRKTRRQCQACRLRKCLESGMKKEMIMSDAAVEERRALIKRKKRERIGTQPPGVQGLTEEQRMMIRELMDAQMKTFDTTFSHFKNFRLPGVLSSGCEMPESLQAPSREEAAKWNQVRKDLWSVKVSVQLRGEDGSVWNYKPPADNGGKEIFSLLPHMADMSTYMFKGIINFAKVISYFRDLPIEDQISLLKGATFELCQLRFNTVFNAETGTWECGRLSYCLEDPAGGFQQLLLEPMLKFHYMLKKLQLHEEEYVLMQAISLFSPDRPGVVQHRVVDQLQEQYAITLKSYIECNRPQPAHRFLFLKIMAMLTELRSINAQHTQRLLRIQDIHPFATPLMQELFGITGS
T3 sequence (Q96SW2 whole entry, one chain of several): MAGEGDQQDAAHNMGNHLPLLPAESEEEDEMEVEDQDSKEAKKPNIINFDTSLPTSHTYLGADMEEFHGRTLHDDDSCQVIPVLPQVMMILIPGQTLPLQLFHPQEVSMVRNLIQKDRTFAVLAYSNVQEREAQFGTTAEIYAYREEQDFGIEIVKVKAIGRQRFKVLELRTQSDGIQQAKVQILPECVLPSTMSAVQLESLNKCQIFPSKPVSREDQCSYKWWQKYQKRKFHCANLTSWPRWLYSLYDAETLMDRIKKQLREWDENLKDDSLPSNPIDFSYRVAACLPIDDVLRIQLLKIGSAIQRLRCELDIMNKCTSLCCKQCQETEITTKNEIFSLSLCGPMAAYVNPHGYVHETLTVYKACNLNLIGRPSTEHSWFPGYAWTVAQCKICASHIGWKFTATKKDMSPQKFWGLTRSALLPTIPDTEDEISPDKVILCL
T1 sequence (P37231 238-505 limits assumed, species assumed): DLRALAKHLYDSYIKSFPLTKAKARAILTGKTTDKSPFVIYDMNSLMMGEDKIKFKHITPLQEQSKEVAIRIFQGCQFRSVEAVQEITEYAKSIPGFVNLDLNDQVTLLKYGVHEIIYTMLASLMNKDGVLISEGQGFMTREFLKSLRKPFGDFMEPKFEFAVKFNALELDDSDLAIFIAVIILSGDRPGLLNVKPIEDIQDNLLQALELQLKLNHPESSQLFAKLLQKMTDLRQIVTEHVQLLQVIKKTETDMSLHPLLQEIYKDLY

For the molecule `NC(=O)c1cc(Cn2cc(-c3c(-c4ccc(Cl)cc4)nc4c(F)cc(F)cn34)nn2)ccc1Cl` [Compound 11, 2-Chloro-5-((4-(2-(4-chlorophenyl)-6,8-difluoroimidazo[1,2-a]pyridin-3-yl)-1H-1,2,3-triazol-1-yl)methyl)-benzamide], on PPARγ, the “agonistic effect on PPARγ” value is recorded as “no agonistic effects”. For the same molecule, on rhesus monkey PXR (oPXR), the “activity on rhesus monkey PXR (oPXR)” value is on record as “full agonism”. Besides, the 50% inhibitory concentration (IC50) (commonly the concentration that gives 50% inhibition) on PXR (IC50, antagonistic activity for rifampicin (1 μM)-activated PXR, rifampicin 1 μM, HepG2) is 0.378 µM; on PXR (IC50, antagonistic mode, MI891 + Rif-5 μM, rifampicin 5 μM, HepG2), 3.5 µM; against PXR (PXR antagonism: PXR inhibition (IC50, μM), antagonist mode with 10 μM rifampicin, mean ± SD, n = 3) it was 3.8 µM and 3.76 µM.
As to “N-(4-((1-(2,5-dimethoxyphenyl)-5-methyl-1H-1,2,3-triazol-4-yl)sulfonyl)phenyl)-3-(2-(2-(2-(4-(((2-(2,6-dioxopiperidin-3-yl)-1,3-dioxoisoindolin-4-yl)amino)methyl)-1H-1,2,3-triazol-1-yl)ethoxy)ethoxy)ethoxy)propenamide [Compound 36]”, the PXR-HiBiT degradation result at PXR-HiBiT was “confirmed PXR degradation”.
